Assay results from PubChem BioAssay (NCI).
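GI50 = concentration required for 50% inhibition of growth. TGI: concentration producing complete growth inhibition.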

Legend:
Assay in all cases: inhibition of tumour cell growth, NCI panel, 384-well format
[1] = tested on: SNB-19 CNS
[2] = tested on: M14 melanoma
[3] = tested on: PC-3 prostate
[4] = tested on: A549 NSCLC
[5] = tested on: MDA-MB-435 melanoma
[6] = tested on: SF-268 CNS
[7] = tested on: MCF7 breast
[8] = tested on: SK-MEL-28 melanoma
[9] = tested on: UO-31 renal
[10] = tested on: MOLT-4 leukemia
[11] = tested on: SK-MEL-2 melanoma
[12] = tested on: COLO 205 colon
[13] = tested on: HCT-15 colon
[14] = tested on: SF-539 CNS
[15] = tested on: UACC-62 melanoma
[16] = tested on: DU-145 prostate
[17] = tested on: KM12 colon
[18] = tested on: LOX IMVI melanoma
[19] = tested on: ACHN renal
[20] = tested on: SR leukemia
[21] = tested on: OVCAR-4 ovarian
[22] = tested on: NCI-H226 lung
[23] = tested on: OVCAR-3 ovarian
[24] = tested on: NCI/ADR-RES ovarian
[25] = tested on: MDA-MB-231 breast
[26] = tested on: MALME-3M melanoma
[27] = tested on: RXF 393 renal
[28] = tested on: SF-295 CNS
[29] = tested on: MDA-MB-468 breast
[30] = tested on: K-562 leukemia
[31] = tested on: UACC-257 melanoma
[32] = tested on: HCC-2998 colon
[33] = tested on: U251 glioblastoma
[34] = tested on: NCI-H23 lung
[35] = tested on: BT-549 breast
[36] = tested on: NCI-H522 lung
[37] = tested on: A498 renal
[38] = tested on: 786-0 renal
[39] = tested on: OVCAR-8 ovarian
[40] = tested on: RPMI-8226 leukemia
[41] = tested on: OVCAR-5 ovarian
[42] = tested on: HOP-92 NSCLC
[43] = tested on: HCT-116 colon
[44] = tested on: HOP-62 NSCLC
[45] = tested on: NCI-H322M lung
[46] = tested on: HT29 colon
[47] = tested on: CAKI-1 renal
[48] = tested on: T-47D breast
[49] = tested on: HL-60(TB) leukemia
[50] = tested on: CCRF-CEM leukemia
[51] = tested on: NCI-H460 NSCLC
[52] = tested on: IGROV1 ovarian
[53] = tested on: SW-620 colon
[54] = tested on: TK-10 renal
[55] = tested on: SK-OV-3 ovarian
[56] = tested on: SN12C renal
[57] = tested on: SK-MEL-5 melanoma
[58] = tested on: HS 578T breast
[59] = tested on: EKVX NSCLC
[60] = tested on: SNB-75 CNS

SMILES: COc1cc2c(Oc3ccc(NC(=O)C4(C(=O)Nc5ccc(F)cc5)CC4)cc3F)ccnc2cc1OCCCN1CCOCC1
- GI50 [1]: 1180 nM
- TGI [1]: 2410 nM
- GI50 [2]: 293 nM
- TGI [2]: 882 nM
- GI50 [3]: 1300 nM
- TGI [3]: 2580 nM
- GI50 [4]: 329 nM
- TGI [4]: 1170 nM
- GI50 [5]: 331 nM
- TGI [5]: 1200 nM
- GI50 [6]: 781 nM
- TGI [6]: 2020 nM
- GI50 [7]: 331 nM
- TGI [7]: 1440 nM
- GI50 [8]: 361 nM
- TGI [8]: 1430 nM
- GI50 [9]: 314 nM
- TGI [9]: 1110 nM
- GI50 [10]: 42.5 nM
- TGI [10]: 137 nM
- GI50 [11]: 300 nM
- TGI [11]: 1240 nM
- GI50 [12]: 211 nM
- TGI [12]: 460 nM
- GI50 [13]: 419 nM
- TGI [13]: 1590 nM
- GI50 [14]: 135 nM
- TGI [14]: 489 nM
- GI50 [15]: 369 nM
- TGI [15]: 1550 nM
- GI50 [16]: 1160 nM
- TGI [16]: 2390 nM
- TGI [17]: 931 nM
- GI50 [18]: 386 nM
- TGI [18]: 945 nM
- GI50 [19]: 205 nM
- TGI [19]: 718 nM
- GI50 [20]: 131 nM
- TGI [20]: 261 nM
- GI50 [21]: 409 nM
- TGI [21]: 1770 nM
- GI50 [22]: 276 nM
- TGI [22]: 966 nM
- GI50 [23]: 554 nM
- TGI [23]: 1780 nM
- GI50 [24]: 436 nM
- TGI [24]: 1600 nM
- GI50 [25]: 361 nM
- TGI [25]: 1660 nM
- GI50 [26]: 185 nM
- TGI [26]: 541 nM
- GI50 [27]: 158 nM
- TGI [27]: 548 nM
- GI50 [28]: 94 nM
- TGI [28]: 1510 nM
- GI50 [29]: 270 nM
- TGI [29]: 547 nM
- GI50 [30]: 40.3 nM
- TGI [30]: 143 nM
- GI50 [31]: 265 nM
- TGI [31]: 859 nM
- GI50 [32]: 1110 nM
- TGI [32]: 2320 nM
- GI50 [33]: 1140 nM
- TGI [33]: 2360 nM
- GI50 [34]: 46.3 nM
- TGI [34]: 642 nM
- GI50 [35]: 440 nM
- TGI [35]: 1510 nM
- GI50 [36]: 211 nM
- TGI [36]: 817 nM
- GI50 [37]: 838 nM
- TGI [37]: 2080 nM
- GI50 [38]: 1190 nM
- TGI [38]: 2420 nM
- GI50 [39]: 1190 nM
- TGI [39]: 2430 nM
- GI50 [40]: 202 nM
- TGI [40]: 492 nM
- GI50 [41]: 911 nM
- TGI [41]: 2120 nM
- GI50 [42]: 107 nM
- TGI [42]: 421 nM
- GI50 [43]: 379 nM
- TGI [43]: 1570 nM
- GI50 [44]: 668 nM
- TGI [44]: 1930 nM
- GI50 [45]: 866 nM
- TGI [45]: 2100 nM
- GI50 [46]: 324 nM
- TGI [46]: 1220 nM
- GI50 [47]: 183 nM
- TGI [47]: 584 nM
- GI50 [48]: 1050 nM
- TGI [48]: 2230 nM
- GI50 [49]: 194 nM
- TGI [49]: 387 nM
- GI50 [50]: 52.8 nM
- TGI [50]: 189 nM
- GI50 [51]: 219 nM
- TGI [51]: 1130 nM
- GI50 [52]: 275 nM
- TGI [52]: 990 nM
- GI50 [53]: 201 nM
- TGI [53]: 747 nM
- GI50 [54]: 648 nM
- TGI [54]: 1910 nM
- GI50 [55]: 522 nM
- TGI [55]: 1790 nM
- GI50 [56]: 175 nM
- TGI [56]: 1060 nM
- GI50 [57]: 333 nM
- TGI [57]: 1460 nM

SMILES: C[C@@H](O)[C@@H](C)Oc1nc(Nc2ccc(S(=N)(=O)C3CC3)cc2)ncc1C(F)(F)F (stereo not given in full)
- GI50 [2]: 19.7 nM
- TGI [2]: 85.2 nM
- GI50 [4]: 33.4 nM
- TGI [4]: > 100000 nM
- GI50 [5]: 23.3 nM
- TGI [5]: 64.5 nM
- GI50 [6]: 20.1 nM
- TGI [6]: 58.6 nM
- GI50 [7]: 24.1 nM
- TGI [7]: > 100000 nM
- GI50 [8]: 16.4 nM
- TGI [8]: 39.5 nM
- GI50 [10]: 20.2 nM
- TGI [10]: 35 nM
- GI50 [12]: 16.4 nM
- TGI [12]: 42.6 nM
- GI50 [58]: 24.4 nM
- TGI [58]: 62.8 nM
- GI50 [14]: 17.9 nM
- TGI [14]: 36.4 nM
- GI50 [15]: 12.7 nM
- TGI [15]: 27.9 nM
- GI50 [17]: 23.4 nM
- TGI [17]: > 100000 nM
- GI50 [18]: 14.6 nM
- TGI [18]: 48.9 nM
- GI50 [20]: < 10 nM
- TGI [20]: 13.2 nM
- GI50 [21]: 21.3 nM
- TGI [21]: 56.9 nM
- GI50 [23]: 18.2 nM
- TGI [23]: 43.9 nM
- GI50 [24]: 67.3 nM
- TGI [24]: 406 nM
- GI50 [59]: 23.8 nM
- TGI [59]: 52 nM
- GI50 [25]: 28.3 nM
- TGI [25]: > 100000 nM
- GI50 [26]: 23.5 nM
- TGI [26]: 46.6 nM
- GI50 [28]: 30.9 nM
- TGI [28]: > 100000 nM
- GI50 [29]: 15.9 nM
- TGI [29]: 30.2 nM
- GI50 [31]: 17.7 nM
- TGI [31]: 37.2 nM
- GI50 [32]: 12 nM
- TGI [32]: 33.3 nM
- GI50 [33]: 20.2 nM
- TGI [33]: 60 nM
- GI50 [34]: 17.1 nM
- TGI [34]: 36.1 nM
- GI50 [35]: 12.4 nM
- TGI [35]: 27.1 nM
- GI50 [36]: < 10 nM
- TGI [36]: 24.9 nM
- GI50 [39]: 18.8 nM
- TGI [39]: 73.7 nM
- GI50 [60]: 16.4 nM
- TGI [60]: 33 nM
- GI50 [40]: 15.2 nM
- TGI [40]: 28.9 nM
- GI50 [41]: 16.8 nM
- TGI [41]: 54.5 nM
- GI50 [43]: 12.5 nM
- TGI [43]: > 100000 nM
- GI50 [44]: 14.4 nM
- TGI [44]: 44.8 nM
- GI50 [45]: 21.2 nM
- TGI [45]: 46.7 nM
- GI50 [47]: 32.2 nM
- TGI [47]: > 100000 nM
- GI50 [49]: < 10 nM
- TGI [49]: 20.7 nM
- GI50 [51]: 12 nM
- TGI [51]: 28.5 nM
- GI50 [55]: 41.7 nM
- TGI [55]: > 100000 nM
- GI50 [56]: 16.6 nM
- TGI [56]: 36.4 nM
- GI50 [57]: < 10 nM
- TGI [57]: 21.5 nM
